Source: ChEMBL document CHEMBL1149026, “Ohioensins and pallidisetins: novel cytotoxic agents from the moss Polytrichum pallidisetum” (1994)
≈ marks a conversion by molar mass, not a printed value.

Key:
Format in all cases: functional
Conditions in all cases: read-out: ED50 (the source's name)
RPMI-7951 = test: Cytotoxicity against human RPMI7951 cells
A549 = test: Cytotoxicity against human A549 cells
U-251 = test: Cytotoxicity against human U251 cells
HT-29 = test: Cytotoxicity against human HT-29 cells

SMILES	EC50 (RPMI-7951)	EC50 (A549)	EC50 (U-251)	EC50 (HT-29)
COc1cc(OC)c2c3c1-c1c(O)cccc1[C@@H]1Oc4ccccc4[C@@H](C[C@@H]2OC)[C@@H]31 [1,14-DI-O-METHYLDIHYDROOHIOENSIN B]	1 µg/mL (≈ 2.4 µM)	1 µg/mL (≈ 2.4 µM)	–	–
COc1cc(OC)c2c3c1-c1c(O)cccc1[C@@H]1Oc4ccccc4[C@@H](C[C@@H]2O)[C@@H]31 [1-O-METHYLDIHYDROOHIOENSIN B]	–	–	0.8 µg/mL (≈ 1.99 µM)	–
COc1cc(OC)c2c3c1C(=O)C[C@@H]1c4ccccc4O[C@@H](c4cccc(O)c4-2)[C@H]31 [1-O-METHYLOHIOENSIN B]	1 µg/mL (≈ 2.5 µM)	–	2 µg/mL (≈ 4.99 µM)	1 µg/mL (≈ 2.5 µM)
O=C(/C=C/c1ccccc1)c1cc(O)cc2c1CC(c1ccccc1)O2 (stereo not given) [PALLIDISETIN A]	1 µg/mL (≈ 2.92 µM)	–	1 µg/mL (≈ 2.92 µM)	–
O=C(/C=C\c1ccccc1)c1cc(O)cc2c1CC(c1ccccc1)O2 (stereo not given) [PALLIDISETIN B]	2 µg/mL (≈ 5.84 µM)	–	2 µg/mL (≈ 5.84 µM)	–
